Test results reported in the supplement of paper PMC11061612.

What was measured:
Carboplatin = compound: C1CC(C1)(C(=O)[O-])C(=O)[O-].N.N.[Pt+2] [Carboplatin]; conditions: max 10 µM
Procedure, shortened: (§1)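 Cancer cell lines were dosed for 72 hours (final DMSO typically 0.2%) after 24 hours at 37°C and 5% CO2 in 1536-well plates containing 7.5 μl DMEM/F12 or RPMI with 10% FBS. Viability came from CellTiter-Glo 2.0 luminescence, scaled between blank-well and DMSO-well means, and dose responses were fitted to a two-parameter logistic curve with a non-linear mixed effects model. The single-agent IC50 was obtained from this fit.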

AZD5363 = compound: C1CN(CCC1(C(=O)N[C@@H](CCO)C2=CC=C(C=C2)Cl)N)C3=NC=NC4=C3C=CN4 [AZD5363]; conditions: max 10 µM
Procedure, shortened: as §1

AZD1775 = compound: C=CCn1c(=O)c2cnc(Nc3ccc(N4CCN(C)CC4)cc3)nc2n1-c1cccc(C(C)(C)O)n1 [AZD1775]; conditions: max 3 µM
Procedure, shortened: as §1

Trametinib = compound: CC(=O)Nc1cccc(-n2c(=O)n(C3CC3)c(=O)c3c(Nc4ccc(I)cc4F)n(C)c(=O)c(C)c32)c1 [Trametinib]; conditions: max 1 µM
Procedure, shortened: as §1

Paclitaxel = compound: CC(=O)O[C@H]1C(=O)[C@@]2(C)[C@H]([C@H](OC(=O)c3ccccc3)[C@]3(O)C[C@H](OC(=O)[C@H](O)[C@@H](NC(=O)c4ccccc4)c4ccccc4)C(C)=C1C3(C)C)[C@]1(OC(C)=O)CO[C@@H]1C[C@@H]2O [Paclitaxel]; conditions: max 3 µM
Procedure, shortened: as §1

Palbociclib = compound: CC(=O)c1c(C)c2cnc(Nc3ccc(N4CCNCC4)cn3)nc2n(C2CCCC2)c1=O [Palbociclib]; conditions: max 10 µM
Procedure, shortened: as §1

AZD1390 = compound: CC(C)n1c(=O)n(C)c2cnc3cc(F)c(-c4ccc(OCCCN5CCCCC5)nc4)cc3c21 [AZD1390]; conditions: max 0.3 µM
Procedure, shortened: as §1

Venetoclax = compound: CC1(C)CCC(CN2CCN(c3ccc(C(=O)NS(=O)(=O)c4ccc(NCC5CCOCC5)c([N+](=O)[O-])c4)c(Oc4cnc5[nH]ccc5c4)c3)CC2)=C(c2ccc(Cl)cc2)C1 [Venetoclax]; conditions: max 1 µM
Procedure, shortened: as §1

Dasatinib = compound: CC1=C(C(=CC=C1)Cl)NC(=O)C2=CN=C(S2)NC3=CC(=NC(=N3)C)N4CCN(CC4)CCO [Dasatinib]; conditions: max 2 µM
Procedure, shortened: as §1

SG3199 = compound: CC1=CN2[C@@H](C1)C=NC3=CC(=C(C=C3C2=O)OC)OCCCCCOC4=C(C=C5C(=C4)N=C[C@@H]6CC(=CN6C5=O)C)OC [SG3199]; conditions: max 0.001 µM
Procedure, shortened: as §1

AZD2811 = compound: CCN(CCO)CCCOc1ccc2c(Nc3cc(CC(=O)Nc4cccc(F)c4)[nH]n3)ncnc2c1 [AZD2811]; conditions: max 1 µM
Procedure, shortened: as §1

SN-38 = compound: CCc1c2c(nc3ccc(O)cc13)-c1cc3c(c(=O)n1C2)COC(=O)[C@]3(O)CC [SN-38]; conditions: max 0.3 µM
Procedure, shortened: as §1

AZD0156 = compound: CN(C)CCCOc1ccc(-c2ccc3ncc4c(c3c2)n(C2CCOCC2)c(=O)n4C)cn1 [AZD0156]; conditions: max 3 µM
Procedure, shortened: as §1

AZD4320 = compound: CN(CC[C@H](CSC1=CC=CC=C1)NC2=C(C=C(C=C2)S(=O)(=O)NC(=O)C3=CC=C(C=C3)N4CCC(CC4)[C@H](C5=CC=CC=C5C6=CC=C(C=C6)Cl)O)S(=O)(=O)C(F)(F)F)CCO [AZD4320]; conditions: max 1 µM
Procedure, shortened: as §1

Alisertib = compound: COc1cc(Nc2ncc3c(n2)-c2ccc(Cl)cc2C(c2c(F)cccc2OC)=NC3)ccc1C(=O)O [Alisertib]; conditions: max 10 µM
Procedure, shortened: as §1

Etoposide = compound: COc1cc([C@@H]2c3cc4c(cc3[C@@H](O[C@@H]3O[C@@H]5CO[C@@H](C)O[C@H]5[C@H](O)[C@H]3O)[C@H]3COC(=O)[C@H]23)OCO4)cc(OC)c1O [Etoposide]; conditions: max 10 µM
Procedure, shortened: as §1

Gefitinib = compound: COc1cc2ncnc(Nc3ccc(F)c(Cl)c3)c2cc1OCCCN1CCOCC1 [Gefitinib]; conditions: max 10 µM
Procedure, shortened: as §1

Prexasertib = compound: COc1cccc(OCCCN)c1-c1cc(Nc2cnc(C#N)cn2)n[nH]1 [Prexasertib]; conditions: max 1 µM
Procedure, shortened: as §1

Doxorubicin = compound: COc1cccc2c1C(=O)c1c(O)c3c(c(O)c1C2=O)C[C@@](O)(C(=O)CO)C[C@@H]3O[C@H]1C[C@H](N)[C@H](O)[C@H](C)O1 [Doxorubicin]; conditions: max 1 µM
Procedure, shortened: as §1

AZD5153 = compound: COc1nnc2ccc(N3CCC(c4ccc(OCCN5CCN(C)C(=O)[C@H]5C)cc4)CC3)nn12 [AZD5153]; conditions: max 1 µM
Procedure, shortened: as §1

Lapatinib = compound: CS(=O)(=O)CCNCc1ccc(-c2ccc3ncnc(Nc4ccc(OCc5cccc(F)c5)c(Cl)c4)c3c2)o1 [Lapatinib]; conditions: max 10 µM
Procedure, shortened: as §1

AZD8186 = compound: C[C@@H](Nc1cc(F)cc(F)c1)c1cc(C(=O)N(C)C)cc2c(=O)cc(N3CCOCC3)oc12 [AZD8186]; conditions: max 10 µM
Procedure, shortened: as §1

Crizotinib = compound: C[C@@H](Oc1cc(-c2cnn(C3CCNCC3)c2)cnc1N)c1c(Cl)ccc(F)c1Cl [Crizotinib]; conditions: max 10 µM
Procedure, shortened: as §1

Savolitinib = compound: C[C@@H](c1ccc2nccn2c1)n1nnc2ncc(-c3cnn(C)c3)nc21 [Savolitinib]; conditions: max 1 µM
Procedure, shortened: as §1

AZD6738 = compound: C[C@@H]1COCCN1C2=NC(=NC(=C2)C3(CC3)[S@](=N)(=O)C)C4=C5C=CNC5=NC=C4 [AZD6738]; conditions: max 10 µM
Procedure, shortened: as §1

AZD5991 = compound: Cc1c2c(nn1C)CSCc1cc(n(C)n1)CSc1cc(c3ccccc3c1)OCCCc1c(C(=O)O)n(C)c3c-2c(Cl)ccc13 [AZD5991]; conditions: max 1 µM
Procedure, shortened: as §1

AZD7648 = compound: Cc1cc2ncnn2cc1Nc1ncc2c(n1)n(C1CCOCC1)c(=O)n2C [AZD7648]; conditions: max 10 µM
Procedure, shortened: as §1

Taselisib = compound: Cc1nc(-c2cn3c(n2)-c2ccc(-c4cnn(C(C)(C)C(N)=O)c4)cc2OCC3)n(C(C)C)n1 [Taselisib]; conditions: max 10 µM
Procedure, shortened: as §1

Selumetinib = compound: Cn1cnc2c(F)c(Nc3ccc(Br)cc3Cl)c(C(=O)NOCCO)cc21 [Selumetinib]; conditions: max 10 µM
Procedure, shortened: as §1

SRA737 = compound: N#Cc1cnc(Nc2cc(NC[C@H]3CNCCO3)c(C(F)(F)F)cn2)cn1 [SRA737]; conditions: max 10 µM
Procedure, shortened: as §1

MK-2206 = compound: NC1(c2ccc(-c3nc4ccn5c(=O)[nH]nc5c4cc3-c3ccccc3)cc2)CCC1 [MK-2206]; conditions: max 10 µM
Procedure, shortened: as §1

Gemcitabine = compound: Nc1ccn([C@@H]2O[C@H](CO)[C@@H](O)C2(F)F)c(=O)n1 [Gemcitabine]; conditions: max 0.3 µM
Procedure, shortened: as §1

[1] = compound: O=C(Nc1ccc2[nH]nc(-c3ccncc3)c2c1)[C@@H]1CCN(CC(=O)N2CCN(c3ccc(-c4ncccn4)cc3)CC2)C1; conditions: max 5 µM
Procedure, shortened: as §1

Olaparib = compound: O=C(c1cc(Cc2n[nH]c(=O)c3ccccc23)ccc1F)N1CCN(C(=O)C2CC2)CC1 [Olaparib]; conditions: max 10 µM
Procedure, shortened: as §1

5-Fluorouracil = compound: O=c1[nH]cc(F)c(=O)[nH]1 [5-Fluorouracil]; conditions: max 20 µM
Procedure, shortened: as §1

Row | Cell Line | IC50, cell viability 72 h (Carboplatin) | IC50, cell viability 72 h (AZD5363) | IC50, cell viability 72 h (AZD1775) | IC50, cell viability 72 h (Trametinib) | IC50, cell viability 72 h (Paclitaxel) | IC50, cell viability 72 h (Palbociclib) | IC50, cell viability 72 h (AZD1390) | IC50, cell viability 72 h (Venetoclax) | IC50, cell viability 72 h (Dasatinib) | IC50, cell viability 72 h (SG3199) | IC50, cell viability 72 h (AZD2811) | IC50, cell viability 72 h (SN-38) | IC50, cell viability 72 h (AZD0156) | IC50, cell viability 72 h (AZD4320) | IC50, cell viability 72 h (Alisertib) | IC50, cell viability 72 h (Etoposide) | IC50, cell viability 72 h (Gefitinib) | IC50, cell viability 72 h (Prexasertib) | IC50, cell viability 72 h (Doxorubicin) | IC50, cell viability 72 h (AZD5153) | IC50, cell viability 72 h (Lapatinib) | IC50, cell viability 72 h (AZD8186) | IC50, cell viability 72 h (Crizotinib) | IC50, cell viability 72 h (Savolitinib) | IC50, cell viability 72 h (AZD6738) | IC50, cell viability 72 h (AZD5991) | IC50, cell viability 72 h (AZD7648) | IC50, cell viability 72 h (Taselisib) | IC50, cell viability 72 h (Selumetinib) | IC50, cell viability 72 h (SRA737) | IC50, cell viability 72 h (MK-2206) | IC50, cell viability 72 h (Gemcitabine) | IC50, cell viability 72 h [1] | IC50, cell viability 72 h (Olaparib) | IC50, cell viability 72 h (5-Fluorouracil)
1 | NCI-H1666 (Lung Adenocarcinoma) | > 10 µM | > 10 µM | > 3 µM | 0.103 µM | 0.794 µM | > 10 µM | > 0.3 µM | > 1 µM | > 2 µM | > 0.001 µM | > 1 µM | 0.238 µM | > 3 µM | > 1 µM | > 10 µM | > 10 µM | > 10 µM | > 1 µM | > 1 µM | > 1 µM | > 10 µM | > 10 µM | > 10 µM | > 1 µM | > 10 µM | > 1 µM | > 10 µM | 3.2 µM | 7.17 µM | > 10 µM | > 10 µM | > 0.3 µM | > 5 µM | > 10 µM | > 20 µM
2 | NCI-H2066 (Squamous Cell Lung Carcinoma) | > 10 µM | > 10 µM | > 3 µM | > 1 µM | 0.32 µM | > 10 µM | > 0.3 µM | > 1 µM | > 2 µM | > 0.001 µM | > 1 µM | > 0.3 µM | > 3 µM | > 1 µM | > 10 µM | > 10 µM | > 10 µM | > 1 µM | > 1 µM | > 1 µM | > 10 µM | > 10 µM | > 10 µM | > 1 µM | > 10 µM | > 1 µM | > 10 µM | 3.92 µM | > 10 µM | > 10 µM | > 10 µM | > 0.3 µM | > 5 µM | > 10 µM | > 20 µM
3 | NY (Osteosarcoma) | > 10 µM | > 10 µM | 0.538 µM | > 1 µM | 0.00726 µM | > 10 µM | > 0.3 µM | > 1 µM | > 2 µM | > 0.001 µM | > 1 µM | 0.0161 µM | > 3 µM | > 1 µM | > 10 µM | > 10 µM | > 10 µM | 0.115 µM | > 1 µM | > 1 µM | > 10 µM | > 10 µM | > 10 µM | > 1 µM | > 10 µM | > 1 µM | > 10 µM | > 10 µM | > 10 µM | 3.44 µM | > 10 µM | 0.041 µM | > 5 µM | > 10 µM | > 20 µM
4 | ONS-76 (Other Solid Carcinomas) | > 10 µM | > 10 µM | 1.19 µM | 0.0239 µM | 0.0661 µM | > 10 µM | > 0.3 µM | > 1 µM | > 2 µM | > 0.001 µM | > 1 µM | 0.0437 µM | > 3 µM | > 1 µM | > 10 µM | 8.96 µM | > 10 µM | 0.0087 µM | 0.252 µM | 0.94 µM | > 10 µM | > 10 µM | > 10 µM | > 1 µM | 1 µM | > 1 µM | > 10 µM | > 10 µM | 1.91 µM | 1.69 µM | > 10 µM | 0.257 µM | 0.27 µM | > 10 µM | > 20 µM
